Series [1] has as its target Prostaglandin G/H synthase 1 (Homo sapiens) (UniProt P23219). The note with it: Blood, at 10 µM.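 Further: human whole blood assay, COX-1 activity read out as TXB2 level by enzyme immunoassay.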
Description: Inhibition of cyclooxygenase-1 in Homo sapiens (human) whole blood assessed as TXB2 level at 10 uM by EIA
For series [2], the system named is Mus musculus. Kind of series: Anti-inflammatory activity in Mus musculus Swiss albino (mouse) assessed as inhibition of carrageenan-induced edema at 100 mg/kg, po pretreated 60 min before carrageenan-challenge measured after 90 min. The class given is functional.
Series [3] addresses T1, Prostaglandin G/H synthase 2 (Homo sapiens) (UniProt P35354).
T1 sequence (whole entry): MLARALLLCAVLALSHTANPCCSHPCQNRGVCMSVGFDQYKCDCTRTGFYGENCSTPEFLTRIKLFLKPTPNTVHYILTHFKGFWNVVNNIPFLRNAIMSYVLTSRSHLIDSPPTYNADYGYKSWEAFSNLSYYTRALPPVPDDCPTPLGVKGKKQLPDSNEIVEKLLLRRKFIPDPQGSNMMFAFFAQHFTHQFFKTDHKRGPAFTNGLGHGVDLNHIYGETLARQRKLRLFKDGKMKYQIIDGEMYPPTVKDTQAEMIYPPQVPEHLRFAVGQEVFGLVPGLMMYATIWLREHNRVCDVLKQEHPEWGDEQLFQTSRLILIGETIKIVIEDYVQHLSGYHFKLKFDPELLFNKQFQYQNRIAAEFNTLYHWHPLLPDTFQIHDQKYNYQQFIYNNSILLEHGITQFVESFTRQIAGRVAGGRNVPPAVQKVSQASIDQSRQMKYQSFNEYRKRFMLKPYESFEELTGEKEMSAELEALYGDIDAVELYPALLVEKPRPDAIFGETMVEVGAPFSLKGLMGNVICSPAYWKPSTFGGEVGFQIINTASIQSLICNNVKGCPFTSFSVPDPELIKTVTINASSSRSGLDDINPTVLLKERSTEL
The note with it: Blood, at 10 µM.
Description: Inhibition of cyclooxygenase-2 in Homo sapiens (human) whole blood assessed as PGE2 level at 10 uM by EIA

In series [4] the test system is Mus musculus. Kind of series: Anti-inflammatory activity in Mus musculus Swiss albino (mouse) assessed as inhibition of carrageenan-induced edema at 100 mg/kg, po pretreated 60 min before carrageenan-challenge measured after 270 min. It is filed as functional.
Series [5] has as its system Mus musculus. Description: Anti-inflammatory activity in Mus musculus Swiss albino (mouse) assessed as inhibition of carrageenan-induced edema at 100 mg/kg, po pretreated 60 min before carrageenan-challenge measured after 180 min. It is filed as functional.
Series [6] concerns Mus musculus. Kind of series: Anti-inflammatory activity in Mus musculus Swiss albino (mouse) assessed as inhibition of carrageenan-induced edema at 100 mg/kg, po pretreated 60 min before carrageenan-challenge measured after 360 min. It is filed as functional. Background: Carrageenan injected into the paw causes an acute inflammation.
Series [7] addresses T2, Polyunsaturated fatty acid 5-lipoxygenase (Homo sapiens) (UniProt P09917).
T2 sequence (whole entry): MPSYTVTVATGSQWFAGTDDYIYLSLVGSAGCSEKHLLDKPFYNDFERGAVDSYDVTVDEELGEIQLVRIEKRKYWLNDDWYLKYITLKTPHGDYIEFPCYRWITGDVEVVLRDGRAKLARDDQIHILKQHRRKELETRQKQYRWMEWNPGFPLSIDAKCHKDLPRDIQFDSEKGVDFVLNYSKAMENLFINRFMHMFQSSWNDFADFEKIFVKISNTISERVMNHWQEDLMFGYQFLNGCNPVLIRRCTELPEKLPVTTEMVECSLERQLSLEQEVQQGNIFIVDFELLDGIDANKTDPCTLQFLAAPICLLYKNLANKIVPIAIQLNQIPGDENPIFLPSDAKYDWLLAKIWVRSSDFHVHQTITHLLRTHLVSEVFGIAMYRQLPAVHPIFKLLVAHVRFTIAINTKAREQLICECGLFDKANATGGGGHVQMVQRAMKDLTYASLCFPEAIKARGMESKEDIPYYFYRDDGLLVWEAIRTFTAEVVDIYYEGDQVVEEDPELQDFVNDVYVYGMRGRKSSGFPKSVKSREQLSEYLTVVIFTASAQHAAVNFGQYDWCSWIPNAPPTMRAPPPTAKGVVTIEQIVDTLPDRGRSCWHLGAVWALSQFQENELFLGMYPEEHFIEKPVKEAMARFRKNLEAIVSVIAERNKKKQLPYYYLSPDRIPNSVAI
Kind of series: Inhibition of 5-LOX (unknown origin) at 10 uM.

The test system of series [8] is Mus musculus. Description: Gastrointestinal toxicity in Mus musculus Swiss albino (mouse) assessed as ratio of ulcer at 100 mg/kg, po measured after 2 hr. The note with it: in vivo. It is filed as organism-based. On the set-up: dose 100 mg/kg, route oral.
Series [9] concerns Mus musculus. Description: Analgesic activity in Mus musculus Swiss albino (mouse) assessed as inhibition of p-benzoquinone-induced writhing at 100 mg/kg, po pretreated 60 min before p-benzoquinone challenge. The class given is functional. (In general: In writhing tests, fewer writhes than in controls are read as antinociception.)

Calls of active or inactive are those of the source. The calls are words filed in the database; no cut-off is given here.

Chain of Prostaglandin G/H synthase 1 (Homo sapiens) (P23219 whole entry): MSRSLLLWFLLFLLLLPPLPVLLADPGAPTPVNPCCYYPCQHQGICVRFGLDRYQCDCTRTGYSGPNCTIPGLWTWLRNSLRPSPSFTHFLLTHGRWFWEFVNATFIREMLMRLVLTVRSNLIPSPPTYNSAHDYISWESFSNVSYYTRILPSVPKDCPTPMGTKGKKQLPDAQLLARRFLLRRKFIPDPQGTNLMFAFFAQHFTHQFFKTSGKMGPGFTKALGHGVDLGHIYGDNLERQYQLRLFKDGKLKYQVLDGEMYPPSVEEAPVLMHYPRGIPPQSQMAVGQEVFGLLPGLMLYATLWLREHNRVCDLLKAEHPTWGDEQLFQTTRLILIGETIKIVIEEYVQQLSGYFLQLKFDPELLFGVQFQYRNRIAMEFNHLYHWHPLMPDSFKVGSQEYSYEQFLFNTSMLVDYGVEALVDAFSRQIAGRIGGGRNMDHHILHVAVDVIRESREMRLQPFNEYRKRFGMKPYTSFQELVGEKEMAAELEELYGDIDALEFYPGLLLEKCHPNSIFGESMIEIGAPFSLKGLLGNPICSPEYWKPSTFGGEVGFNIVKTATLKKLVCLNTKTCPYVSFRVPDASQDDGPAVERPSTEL

Take `Cc1cccc(NC(=O)Cn2c(=O)sc3cc(C(=O)c4ccccc4F)ccc32)n1`: the inhibition (usually the change of the read-out against control, counted positive when it falls) in [1] was determined as 28%; in [3], 12.6%; in series [7] it was 20%. The inhibition in vivo (commonly the percentage by which the read-out fell short of the control) at 100 mg/kg came to 1.7% with Mus musculus [2]; 1.2% in the series on Mus musculus [4]; 3.7% in the series on Mus musculus [5]; 2.3% with Mus musculus [6]; 22.2% with Mus musculus [9]. The Activity entry in the series with Mus musculus [8] is given as “Non-toxic”.
With `O=C(Cn1c(=O)sc2cc(C(=O)c3ccccc3Cl)ccc21)Nc1ccc(Cl)cc1`, the results for the inhibition in series [1] and in series [3] were 39.2% and 53.1%, respectively. Also, the inhibition in vivo at 100 mg/kg with Mus musculus [2] was found to be 25.8%; in the series with Mus musculus [4], 31.9%; in the series with Mus musculus [5], 28.4%; in the series on Mus musculus [6] it was 33.2%; in the series with Mus musculus [9], 47.3%. For the same molecule, in series [7], the inhibition entry is “inactive”. Also, the Activity entry in the series with Mus musculus [8] is recorded as “Non-toxic”.
Molecule `CS(=O)(=O)c1ccc(-c2cc(Br)sc2-c2ccc(F)cc2)cc1` returned an inhibition in [1] of 100%.
With `Cc1ccnc(NC(=O)Cn2c(=O)sc3cc(C(=O)c4ccccc4F)ccc32)c1`, the inhibition came to 1.98% in series [1] and 19% in series [7]. Besides, the inhibition in vivo at 100 mg/kg in the series on Mus musculus [2] was determined as 2.8%; in the series with Mus musculus [4] it was 6.1%; in the series on Mus musculus [5], 6.8%; in the series on Mus musculus [6], 4.6%; in the series on Mus musculus [9], 27%. Besides, in series [3], the inhibition entry was “inactive”. Further, the Activity result with Mus musculus [8] is “Toxic”.
With `O=C(Cn1c(=O)sc2cc(C(=O)c3ccccc3Cl)ccc21)Nc1ccccc1`, the inhibition in [1] was 3.42%; in [7] it was 16%. Also, the inhibition in vivo at 100 mg/kg with Mus musculus [2] came out at 5.3%; in the series with Mus musculus [4], 10.9%; in the series with Mus musculus [5], 11%; with Mus musculus [6] it was 10.5%; with Mus musculus [9], 20.6%. For the same molecule, in series [3], the inhibition result is “inactive”. The Activity entry with Mus musculus [8] is reported as “Non-toxic”.
For the molecule `O=C(Cn1c(=O)sc2cc(C(=O)c3ccccc3)ccc21)Nc1cccc(Cl)c1`, the inhibition entry in series [1] and in [3] was “inactive” throughout. For the same molecule, the inhibition in vivo at 100 mg/kg in the series on Mus musculus [2] is 5.6%; in the series on Mus musculus [4] it was 10.8%; in the series with Mus musculus [5], 10.7%; in the series with Mus musculus [6] it was 8%; in the series on Mus musculus [9] it was 23.1%. In series [7], this molecule came in with an inhibition of 46%. Moreover, in the series with Mus musculus [8], the Activity result is “Non-toxic”.
Molecule `O=C(Cn1c(=O)sc2cc(C(=O)c3ccccc3F)ccc21)Nc1ccccn1` showed an inhibition in series [1] of 17.8%. Besides, the inhibition entry (in the series on Mus musculus [2]; in series [3]; with Mus musculus [4]; with Mus musculus [5]; with Mus musculus [6]; in series [7]) was “inactive” throughout. The Activity entry with Mus musculus [8] is “Non-toxic”. Further, the inhibition in vivo at 100 mg/kg with Mus musculus [9] is 18.7%.
For `Cc1ccnc(NC(=O)Cn2c(=O)sc3cc(C(=O)c4ccccc4)ccc32)c1`, the inhibition came out at 50% in [1], 6.83% in series [3] and 11% in [7]. Also, the inhibition result with Mus musculus [2], with Mus musculus [4], with Mus musculus [5], in the series on Mus musculus [6] and in the series on Mus musculus [9] was “inactive” each time. In addition, in the series with Mus musculus [8], the Activity entry is reported as “Toxic”.
Consider `O=C(Cn1c(=O)sc2cc(C(=O)c3ccccc3F)ccc21)Nc1ccccc1`, for which the inhibition was 5.61% in [1] and 24% in series [7]. Besides, the inhibition in vivo at 100 mg/kg in the series with Mus musculus [2] was 11.3%; in the series on Mus musculus [4], 22.6%; in the series on Mus musculus [5] it was 23.5%; in the series with Mus musculus [6], 19.5%; in the series on Mus musculus [9] it was 26.8%. Further, the inhibition result in series [3] is “inactive”. Moreover, the Activity entry with Mus musculus [8] was “Non-toxic”.
Turning to `O=C(Cn1c(=O)sc2cc(C(=O)c3ccccc3F)ccc21)Nc1cccc(Cl)c1`, the values for the inhibition in series [1], in [3] and in series [7] were 20.5%, 19.3% and 31%, respectively. Moreover, the inhibition in vivo at 100 mg/kg in the series with Mus musculus [2] was 15.8%; in the series on Mus musculus [4], 25.5%; with Mus musculus [5], 18.4%; in the series on Mus musculus [6], 28.2%; with Mus musculus [9], 49.9%. For the same molecule, the Activity result in the series with Mus musculus [8] was “Non-toxic”.
`O=C(Cn1c(=O)sc2cc(C(=O)c3ccccc3Cl)ccc21)Nc1cccc(Cl)c1`: the values for the inhibition in series [1] and in series [7] were 7.27% and 35%, respectively. Besides, the inhibition in vivo at 100 mg/kg was 23.9% with Mus musculus [2]; 30.4% in the series with Mus musculus [4]; 22% in the series on Mus musculus [5]; 31.3% in the series with Mus musculus [6]; 41.8% in the series with Mus musculus [9]. Further, the inhibition result in series [3] was “inactive”. For the same molecule, in the series with Mus musculus [8], the Activity entry is listed as “Non-toxic”.
As for `O=C(Cn1c(=O)sc2cc(C(=O)c3ccccc3)ccc21)Nc1ccc(Cl)cc1`, the inhibition entry in series [1] and in [7] was “inactive” throughout. The inhibition in vivo at 100 mg/kg in the series with Mus musculus [2] turned out to be 6.6%; in the series with Mus musculus [4] it was 22.9%; with Mus musculus [5], 15.2%; with Mus musculus [6], 16.5%; in the series with Mus musculus [9], 26.5%. Also, the inhibition in [3] worked out at 23.1%. In the series with Mus musculus [8], the Activity result is given as “Non-toxic”.
For `Cc1ccnc(NC(=O)Cn2c(=O)sc3cc(C(=O)c4ccccc4Cl)ccc32)c1`, the inhibition in series [1] was found to be 10.1%; in [7], 11%. Also, the inhibition in vivo at 100 mg/kg turned out to be 3.8% in the series with Mus musculus [2]; 5.1% with Mus musculus [4]; 3.5% in the series with Mus musculus [5]; 3.7% with Mus musculus [6]; 8.1% with Mus musculus [9]. For the same molecule, the inhibition entry in series [3] was “inactive”. Further, the Activity entry with Mus musculus [8] was “Toxic”.
Consider `Cc1cccc(NC(=O)Cn2c(=O)sc3cc(C(=O)c4ccccc4)ccc32)n1`, for which the inhibition entry (in [1]; with Mus musculus [2]; in series [3]; in the series on Mus musculus [4]; with Mus musculus [5]; with Mus musculus [6]) was “inactive” in each case. In addition, the inhibition result with Mus musculus [9] was “inactive”. In series [7], this molecule yielded an inhibition of 26%. The Activity entry in the series on Mus musculus [8] was “Toxic”.
As for `CC(=O)Oc1ccccc1C(=O)O` [ASPIRIN], the Activity result in the series on Mus musculus [8] is on record as “Toxic”. Besides, the inhibition in vivo at 100 mg/kg in the series on Mus musculus [9] came out at 50.1%.
On to `O=C(Cn1c(=O)sc2cc(C(=O)c3ccccc3)ccc21)Nc1ccccc1`, for which the figures for the inhibition in series [1], in series [3] and in series [7] were 40.4%, 1.47% and 6%, respectively. The inhibition in vivo at 100 mg/kg in the series with Mus musculus [2] turned out to be 3.6%; in the series on Mus musculus [4] it was 12.5%; in the series with Mus musculus [5], 3.5%; in the series with Mus musculus [9], 17.3%. In the series on Mus musculus [8], the Activity entry is “Non-toxic”.

Source of the values: ChEMBL document CHEMBL3045772, “Amide derivatives of [6-acyl-2-benzothiazolinon-3-yl] acetic acids as potential analgesic and anti-inflammatory compounds” (Med Chem Res, 2010).
